Measurements: ChEMBL document CHEMBL1151508, “Preparation and activities of 4-epi and 4-deoxy-4-amino analogs derived from 9-deoxo-8a-aza-8a-homoerythromycin A” (1994)
≈ marks a conversion by molar mass, not a printed value.

Key:
Format in all cases: functional
[1] = test system: Escherichia coli; assay: In vitro minimum inhibitory concentration against Escherichia coli MB2884.
[2] = test system: Enterococcus faecalis; assay: In vitro minimum inhibitory concentration against Enterococcus faecalis MB5407.
[3] = test system: Haemophilus influenzae; assay: In vitro minimum inhibitory concentration against Haemophilus influenzae MB5363.
[4] = test system: Klebsiella pneumoniae; assay: In vitro minimum inhibitory concentration against Klebsiella pneumoniae MB4005.
[5] = test system: Streptococcus pneumoniae; assay: In vitro minimum inhibitory concentration against Streptococcus pneumoniae CL2883.
[6] = test system: Staphylococcus aureus; assay: In vitro minimum inhibitory concentration against Staphylococcus aureus MB2865.

SMILES	MIC [1] [µg/mL]	MIC [2] [µg/mL]	MIC [3] [µg/mL]	MIC [4] [µg/mL]	MIC [5] [µg/mL]	MIC [6] [µg/mL]
CCCN1C[C@H](C)[C@@H](O)[C@](C)(O)[C@@H](CC)OC(=O)[C@H](C)[C@@H](O[C@H]2C[C@@](C)(OC)C(N)[C@H](C)O2)[C@H](C)[C@@H](O[C@@H]2O[C@H](C)C[C@H](N(C)C)[C@H]2O)[C@](C)(O)C[C@H]1C (some centres undefined)	0.5 (≈ 0.644 µM)	2 (≈ 2.58 µM)	0.5 (≈ 0.644 µM)	0.5 (≈ 0.644 µM)	0.06 (≈ 0.0773 µM)	1 (≈ 1.29 µM)
CC[C@H]1OC(=O)[C@H](C)[C@@H](O[C@H]2C[C@@](C)(OC)[C@@H](N(C)C)[C@H](C)O2)[C@H](C)[C@@H](O[C@@H]2O[C@H](C)C[C@H](N(C)C)[C@H]2OC(=O)OCC2c3ccccc3-c3ccccc32)[C@](C)(O)C[C@@H](C)N(C)C[C@H](C)[C@@H](O)[C@]1(C)O	1 (≈ 1 µM)	8 (≈ 8.01 µM)	2 (≈ 2 µM)	2 (≈ 2 µM)	0.5 (≈ 0.501 µM)	8 (≈ 8.01 µM)
CC[C@H]1OC(=O)[C@H](C)[C@@H](O[C@H]2C[C@@](C)(OC)[C@@H](NC(C)=O)[C@H](C)O2)[C@H](C)[C@@H](O[C@@H]2O[C@H](C)C[C@H](N(C)C)[C@H]2OC(=O)OCC2c3ccccc3-c3ccccc32)[C@](C)(O)C[C@@H](C)N(C)C[C@H](C)[C@@H](O)[C@]1(C)O	2 (≈ 1.98 µM)	8 (≈ 7.9 µM)	8 (≈ 7.9 µM)	2 (≈ 1.98 µM)	0.25 (≈ 0.247 µM)	2 (≈ 1.98 µM)
CC[C@H]1OC(=O)[C@H](C)[C@@H](O[C@H]2C[C@@](C)(OC)[C@H](N(C)C)[C@H](C)O2)[C@H](C)[C@@H](O[C@@H]2O[C@H](C)C[C@H](N(C)C)[C@H]2OC(=O)OCC2c3ccccc3-c3ccccc32)[C@](C)(O)C[C@@H](C)N(C)C[C@H](C)[C@@H](O)[C@]1(C)O	0.5 (≈ 0.501 µM)	16 (≈ 16 µM)	2 (≈ 2 µM)	2 (≈ 2 µM)	0.5 (≈ 0.501 µM)	32 (≈ 32.1 µM)
CC[C@H]1OC(=O)[C@H](C)[C@@H](O[C@H]2C[C@@](C)(OC)[C@@H](N)[C@H](C)O2)[C@H](C)[C@@H](O[C@@H]2O[C@H](C)C[C@H](N(C)C)[C@H]2OC(=O)OCC2c3ccccc3-c3ccccc32)[C@](C)(O)C[C@@H](C)N(C)C[C@H](C)[C@@H](O)[C@]1(C)O	0.13 (≈ 0.134 µM)	2 (≈ 2.06 µM)	0.25 (≈ 0.258 µM)	0.13 (≈ 0.134 µM)	0.06 (≈ 0.0618 µM)	1 (≈ 1.03 µM)
CC[C@H]1OC(=O)[C@H](C)[C@@H](O[C@H]2C[C@@](C)(OC)C(N)[C@H](C)O2)[C@H](C)[C@@H](O[C@@H]2O[C@H](C)C[C@H](N(C)C)[C@H]2O)[C@](C)(O)C[C@@H](C)N(C)C[C@H](C)[C@@H](O)[C@]1(C)O (some centres undefined)	0.25 (≈ 0.334 µM)	4 (≈ 5.35 µM)	1 (≈ 1.34 µM)	0.13 (≈ 0.174 µM)	0.03 (≈ 0.0401 µM)	2 (≈ 2.67 µM)
C=CCN1C[C@H](C)[C@@H](O)[C@](C)(O)[C@@H](CC)OC(=O)[C@H](C)[C@@H](O[C@H]2C[C@@](C)(OC)C(N)[C@H](C)O2)[C@H](C)[C@@H](O[C@@H]2O[C@H](C)C[C@H](N(C)C)[C@H]2O)[C@](C)(O)C[C@H]1C (some centres undefined)	0.5 (≈ 0.646 µM)	4 (≈ 5.17 µM)	0.5 (≈ 0.646 µM)	0.25 (≈ 0.323 µM)	0.06 (≈ 0.0775 µM)	2 (≈ 2.58 µM)
CC[C@H]1OC(=O)[C@H](C)[C@@H](O[C@H]2C[C@@](C)(OC)[C@H](O)[C@H](C)O2)[C@H](C)[C@@H](O[C@@H]2O[C@H](C)C[C@H](N(C)C)[C@H]2O)[C@](C)(O)C[C@@H](C)N(C)C[C@H](C)[C@@H](O)[C@]1(C)O	1 (≈ 1.34 µM)	1 (≈ 1.34 µM)	1 (≈ 1.34 µM)	4 (≈ 5.34 µM)	0.06 (≈ 0.0801 µM)	0.5 (≈ 0.668 µM)
CC[C@H]1OC(=O)[C@H](C)[C@@H](O[C@H]2C[C@@](C)(OC)[C@H](NC(C)=O)[C@H](C)O2)[C@H](C)[C@@H](O[C@@H]2O[C@H](C)C[C@H](N(C)C)[C@H]2OC(=O)OCC2c3ccccc3-c3ccccc32)[C@](C)(O)C[C@@H](C)N(C)C[C@H](C)[C@@H](O)[C@]1(C)O	1 (≈ 0.988 µM)	8 (≈ 7.9 µM)	4 (≈ 3.95 µM)	4 (≈ 3.95 µM)	0.5 (≈ 0.494 µM)	16 (≈ 15.8 µM)
CC[C@H]1OC(=O)[C@H](C)[C@@H](O[C@H]2C[C@@](C)(OC)[C@@H](n3cccc3)[C@H](C)O2)[C@H](C)[C@@H](O[C@@H]2O[C@H](C)C[C@H](N(C)C)[C@H]2OC(=O)OCC2c3ccccc3-c3ccccc32)[C@](C)(O)C[C@@H](C)N(C)C[C@H](C)[C@@H](O)[C@]1(C)O	4 (≈ 3.92 µM)	2 (≈ 1.96 µM)	4 (≈ 3.92 µM)	4 (≈ 3.92 µM)	0.13 (≈ 0.127 µM)	4 (≈ 3.92 µM)
CC[C@H]1OC(=O)[C@H](C)[C@@H](O[C@H]2C[C@@](C)(OC)[C@H](N)[C@H](C)O2)[C@H](C)[C@@H](O[C@@H]2O[C@H](C)C[C@H](N(C)C)[C@H]2OC(=O)OCC2c3ccccc3-c3ccccc32)[C@](C)(O)C[C@@H](C)N(C)C[C@H](C)[C@@H](O)[C@]1(C)O	0.25 (≈ 0.258 µM)	2 (≈ 2.06 µM)	0.5 (≈ 0.515 µM)	0.25 (≈ 0.258 µM)	0.06 (≈ 0.0618 µM)	1 (≈ 1.03 µM)
C=CCN1C[C@H](C)[C@@H](O)[C@](C)(O)[C@@H](CC)OC(=O)[C@H](C)[C@@H](O[C@H]2C[C@@](C)(OC)[C@@H](N)[C@H](C)O2)[C@H](C)[C@@H](O[C@@H]2O[C@H](C)C[C@H](N(C)C)[C@H]2OC(=O)OCC2c3ccccc3-c3ccccc32)[C@](C)(O)C[C@H]1C	0.25 (≈ 0.251 µM)	4 (≈ 4.01 µM)	1 (≈ 1 µM)	0.13 (≈ 0.13 µM)	0.03 (≈ 0.0301 µM)	1 (≈ 1 µM)
CC[C@H]1OC(=O)[C@H](C)[C@@H](O[C@H]2C[C@@](C)(OC)[C@@H](N)[C@H](C)O2)[C@H](C)[C@@H](O[C@@H]2O[C@H](C)C[C@H](N(C)C)[C@H]2OC(=O)OCC2c3ccccc3-c3ccccc32)[C@](C)(O)C[C@@H](C)N(CCF)C[C@H](C)[C@@H](O)[C@]1(C)O	0.25 (≈ 0.249 µM)	2 (≈ 2 µM)	1 (≈ 0.998 µM)	0.13 (≈ 0.13 µM)	0.03 (≈ 0.0299 µM)	0.5 (≈ 0.499 µM)
CC[C@H]1OC(=O)[C@H](C)[C@@H](O[C@H]2C[C@@](C)(OC)[C@H](N)[C@H](C)O2)[C@H](C)[C@@H](O[C@@H]2O[C@H](C)C[C@H](N(C)C)[C@H]2OC(=O)OCC2c3ccccc3-c3ccccc32)[C@](C)(O)C[C@@H](C)N(CCF)C[C@H](C)[C@@H](O)[C@]1(C)O	0.25 (≈ 0.249 µM)	1 (≈ 0.998 µM)	0.5 (≈ 0.499 µM)	0.13 (≈ 0.13 µM)	0.03 (≈ 0.0299 µM)	0.25 (≈ 0.249 µM)
C=CCN1C[C@H](C)[C@@H](O)[C@](C)(O)[C@@H](CC)OC(=O)[C@H](C)[C@@H](O[C@H]2C[C@@](C)(OC)[C@H](N)[C@H](C)O2)[C@H](C)[C@@H](O[C@@H]2O[C@H](C)C[C@H](N(C)C)[C@H]2OC(=O)OCC2c3ccccc3-c3ccccc32)[C@](C)(O)C[C@H]1C	0.5 (≈ 0.502 µM)	2 (≈ 2.01 µM)	0.5 (≈ 0.502 µM)	0.25 (≈ 0.251 µM)	0.03 (≈ 0.0301 µM)	1 (≈ 1 µM)
CC[C@H]1OC(=O)[C@H](C)[C@@H](O[C@H]2C[C@@](C)(OC)[C@H](n3cccc3)[C@H](C)O2)[C@H](C)[C@@H](O[C@@H]2O[C@H](C)C[C@H](N(C)C)[C@H]2OC(=O)OCC2c3ccccc3-c3ccccc32)[C@](C)(O)C[C@@H](C)N(C)C[C@H](C)[C@@H](O)[C@]1(C)O	4 (≈ 3.92 µM)	4 (≈ 3.92 µM)	16 (≈ 15.7 µM)	8 (≈ 7.84 µM)	0.25 (≈ 0.245 µM)	8 (≈ 7.84 µM)
CC[C@H]1OC(=O)[C@H](C)[C@@H](O[C@H]2C[C@@](C)(OC)[C@@H](O)[C@H](C)O2)[C@H](C)[C@@H](O[C@@H]2O[C@H](C)C[C@H](N(C)C)[C@H]2O)[C@](C)(O)C[C@@H](C)CN(C)[C@H](C)[C@@H](O)[C@]1(C)O [AZITHROMYCIN]	1 (≈ 1.34 µM)	4 (≈ 5.34 µM)	0.5 (≈ 0.668 µM)	2 (≈ 2.67 µM)	0.03 (≈ 0.0401 µM)	1 (≈ 1.34 µM)
CC[C@H]1OC(=O)[C@H](C)[C@@H](O[C@H]2C[C@@](C)(OC)[C@@H](O)[C@H](C)O2)[C@H](C)[C@@H](O[C@@H]2O[C@H](C)C[C@H](N(C)C)[C@H]2O)[C@](C)(O)C[C@@H](C)C(=O)[C@H](C)[C@@H](O)[C@]1(C)O [ERYTHROMYCIN]	32 (≈ 43.6 µM)	1 (≈ 1.36 µM)	2 (≈ 2.73 µM)	32 (≈ 43.6 µM)	0.02 (≈ 0.0273 µM)	0.25 (≈ 0.341 µM)
CC[C@H]1OC(=O)[C@H](C)[C@@H](O[C@H]2C[C@@](C)(OC)[C@@H](O)[C@H](C)O2)[C@H](C)[C@@H](O[C@@H]2O[C@H](C)C[C@H](N(C)C)[C@H]2O)[C@](C)(O)C[C@@H](C)N(C)C[C@H](C)[C@@H](O)[C@]1(C)O [L-701677]	1 (≈ 1.34 µM)	2 (≈ 2.67 µM)	1 (≈ 1.34 µM)	1 (≈ 1.34 µM)	0.03 (≈ 0.0401 µM)	0.5 (≈ 0.668 µM)
